According to article PMC5218480 (PLoS ONE, 2017):

System: MV-4-11 cells
Test: Gene expression microarray analysis (Affymetrix PrimeView) and GSEA
Format: cell-based, human
Parameters: RFU PODN (11730768_x_at) / Fold change /veh PODN (11730768_x_at) / RFU LINC00158 (11744669_a_at) / Fold change /veh LINC00158 (11744669_a_at) / RFU DUSP10 (11751237_a_at) / Fold change /veh DUSP10 (11751237_a_at) / RFU ID3 (11757404_x_at) / Fold change /veh ID3 (11757404_x_at) / RFU PLEKHG5 (11737974_s_at) / Fold change /veh PLEKHG5 (11737974_s_at) / RFU LRRC4B (11730491_at) / Fold change /veh LRRC4B (11730491_at) / RFU GIMAP4 (11747438_a_at) / Fold change /veh GIMAP4 (11747438_a_at) / RFU KRT8 (11758183_x_at) / Fold change /veh KRT8 (11758183_x_at) / RFU CNN1 (11734310_a_at) / Fold change /veh CNN1 (11734310_a_at) / RFU VPS37D (11726825_at) / Fold change /veh VPS37D (11726825_at) / RFU C10orf10 (11716522_x_at) / Fold change /veh C10orf10 (11716522_x_at) / RFU KIR2DL2 /// KIR2DL4 /// KIR2DL5A /// KIR2DL5B /// KIR2DS1 /// KIR2DS2 /// KIR2DS3 /// KIR2DS4 /// KIR3DL3 /// KIR3DL3 /// KIR3DS1 (11738374_at) / Fold change /veh KIR2DL2 /// KIR2DL4 /// KIR2DL5A /// KIR2DL5B /// KIR2DS1 /// KIR2DS2 /// KIR2DS3 /// KIR2DS4 /// KIR3DL3 /// KIR3DL3 /// KIR3DS1 (11738374_at) / RFU C1QL1 (11718748_at) / Fold change /veh C1QL1 (11718748_at) / RFU TMPRSS4 (11747572_a_at) / Fold change /veh TMPRSS4 (11747572_a_at) / RFU HAMP (11756126_x_at) / Fold change /veh HAMP (11756126_x_at) / RFU RNFT2 (11725882_a_at) / Fold change /veh RNFT2 (11725882_a_at) / RFU NR4A2 (11747474_a_at) / Fold change /veh NR4A2 (11747474_a_at) / RFU ABCC12 (11746883_a_at) / Fold change /veh ABCC12 (11746883_a_at) / RFU TMEM136 (11760407_x_at) / Fold change /veh TMEM136 (11760407_x_at) / RFU CLDN22 /// WWC2 (11732394_at) / Fold change /veh CLDN22 /// WWC2 (11732394_at) / RFU HLA-DPB1 (11760878_x_at) / Fold change /veh HLA-DPB1 (11760878_x_at) / RFU SPINT1 (11716480_a_at) / Fold change /veh SPINT1 (11716480_a_at) / RFU GAP43 (11754022_s_at) / Fold change /veh GAP43 (11754022_s_at) / RFU A4GNT (11735810_at) / Fold change /veh A4GNT (11735810_at) / RFU PRB3 (11715151_x_at) / Fold change /veh PRB3 (11715151_x_at) / RFU TUBB4B (11761932_at) / Fold change /veh TUBB4B (11761932_at) / RFU CAPN14 (11732068_a_at) / Fold change /veh CAPN14 (11732068_a_at) / RFU TMCC2 (11721928_a_at) / Fold change /veh TMCC2 (11721928_a_at) / RFU IRGQ (11745062_a_at) / Fold change /veh IRGQ (11745062_a_at) / RFU FAM174B (11720279_a_at) / Fold change /veh FAM174B (11720279_a_at) / RFU TMPRSS4 (11748680_a_at) / Fold change /veh TMPRSS4 (11748680_a_at) / RFU FAM212B (11763350_a_at) / Fold change /veh FAM212B (11763350_a_at) / RFU PLEKHG5 (11743358_a_at) / Fold change /veh PLEKHG5 (11743358_a_at) / RFU ZSCAN30 (11745921_a_at) / Fold change /veh ZSCAN30 (11745921_a_at) / RFU CMKLR1 (11741424_a_at) / Fold change /veh CMKLR1 (11741424_a_at) / RFU LOC101060620 /// MAPK8IP1 (11723275_at) / Fold change /veh LOC101060620 /// MAPK8IP1 (11723275_at) / RFU SPTSSB (11747773_x_at) / Fold change /veh SPTSSB (11747773_x_at) / RFU PRSS12 (11739890_at) / Fold change /veh PRSS12 (11739890_at) / RFU BIN1 (11741810_x_at) / Fold change /veh BIN1 (11741810_x_at) / RFU WNT11 (11732464_a_at) / Fold change /veh WNT11 (11732464_a_at) / RFU C10orf10 (11716521_a_at) / Fold change /veh C10orf10 (11716521_a_at) / RFU C5orf56 (11738089_at) / Fold change /veh C5orf56 (11738089_at) / RFU CYB561 (11721691_x_at) / Fold change /veh CYB561 (11721691_x_at) / RFU ANKRD19P (11752326_a_at) / Fold change /veh ANKRD19P (11752326_a_at) / RFU OR2T12 /// OR2T33 /// OR2T8 (11738714_s_at) / Fold change /veh OR2T12 /// OR2T33 /// OR2T8 (11738714_s_at) / RFU VCAN (11748164_a_at) / Fold change /veh VCAN (11748164_a_at) / RFU JSRP1 (11732532_at) / Fold change /veh JSRP1 (11732532_at) / RFU KRTAP10-11 (11738290_x_at) / Fold change /veh KRTAP10-11 (11738290_x_at) / RFU MYO3A (11730013_a_at) / Fold change /veh MYO3A (11730013_a_at) / RFU EBF3 (11725865_a_at) / Fold change /veh EBF3 (11725865_a_at) / RFU CAMK2N1 (11719241_x_at) / Fold change /veh CAMK2N1 (11719241_x_at) / RFU C5orf56 (11738088_a_at) / Fold change /veh C5orf56 (11738088_a_at) / RFU OLFML3 (11715873_a_at) / Fold change /veh OLFML3 (11715873_a_at) / RFU LOC100653217 /// NTM (11731650_a_at) / Fold change /veh LOC100653217 /// NTM (11731650_a_at) / RFU MAPK11 (11762145_a_at) / Fold change /veh MAPK11 (11762145_a_at) / RFU FIZ1 (11724087_x_at) / Fold change /veh FIZ1 (11724087_x_at) / RFU OASL (11726364_x_at) / Fold change /veh OASL (11726364_x_at) / RFU SOX15 (11748057_x_at) / Fold change /veh SOX15 (11748057_x_at) / RFU CD79A (11719716_a_at) / Fold change /veh CD79A (11719716_a_at) / RFU HIST1H1D (11736915_at) / Fold change /veh HIST1H1D (11736915_at) / RFU CASKIN2 (11723855_a_at) / Fold change /veh CASKIN2 (11723855_a_at) / RFU LOC730098 (11760151_x_at) / Fold change /veh LOC730098 (11760151_x_at) / RFU OR4N2 (11742367_at) / Fold change /veh OR4N2 (11742367_at) / RFU PRRT2 (11749266_a_at) / Fold change /veh PRRT2 (11749266_a_at) / RFU SNX32 (11753110_a_at) / Fold change /veh SNX32 (11753110_a_at) / RFU CDHR5 (11726645_a_at) / Fold change /veh CDHR5 (11726645_a_at) / RFU RCAN1 (11760418_a_at) / Fold change /veh RCAN1 (11760418_a_at) / RFU FAM167A (11723789_a_at) / Fold change /veh FAM167A (11723789_a_at) / RFU FAM26E (11764081_at) / Fold change /veh FAM26E (11764081_at) / RFU ISYNA1 (11749810_s_at) / Fold change /veh ISYNA1 (11749810_s_at) / RFU ACY1 (11761880_at) / Fold change /veh ACY1 (11761880_at) / RFU 11764098_at / Fold change /veh 11764098_at / RFU SAMD14 (11745864_x_at) / Fold change /veh SAMD14 (11745864_x_at) / RFU NPB (11741838_a_at) / Fold change /veh NPB (11741838_a_at) / RFU TMPRSS6 (11731388_a_at) / Fold change /veh TMPRSS6 (11731388_a_at) / RFU KRTAP10-2 (11738614_at) / Fold change /veh KRTAP10-2 (11738614_at) / RFU ARHGAP8 /// PRR5-ARHGAP8 (11727945_x_at) / Fold change /veh ARHGAP8 /// PRR5-ARHGAP8 (11727945_x_at) / RFU KRTAP5-7 /// NADSYN1 (11734609_at) / Fold change /veh KRTAP5-7 /// NADSYN1 (11734609_at) / RFU RASL12 (11751679_a_at) / Fold change /veh RASL12 (11751679_a_at) / RFU CDKN2B (11736163_a_at) / Fold change /veh CDKN2B (11736163_a_at) / RFU PRF1 (11729649_at) / Fold change /veh PRF1 (11729649_at) / RFU, ZNF638 /// ZNF638-IT1 / Fold change vs veh, ZNF638 /// ZNF638-IT1 / RFU, PANK3 / Fold change vs veh, PANK3 / RFU, SH3YL1 / Fold change vs veh, SH3YL1 / RFU, ZEB2 / Fold change vs veh, ZEB2 / RFU, NRIP1 / Fold change vs veh, NRIP1 / RFU, PTTG1IP / Fold change vs veh, PTTG1IP / RFU, CAPN2 / Fold change vs veh, CAPN2 / RFU, MED14 / Fold change vs veh, MED14 / RFU, SNORA58 / Fold change vs veh, SNORA58 / RFU, C1orf63 / Fold change vs veh, C1orf63 / RFU, LRRFIP1 / Fold change vs veh, LRRFIP1 / RFU, NDUFAF7 / Fold change vs veh, NDUFAF7 / RFU, SLC12A2 / Fold change vs veh, SLC12A2 / RFU, IBTK / Fold change vs veh, IBTK / RFU, ESF1 / Fold change vs veh, ESF1 / Fold change vs veh, TMEM50B / RFU, TAOK1 / Fold change vs veh, TAOK1 / RFU, ACBD3 / Fold change vs veh, ACBD3 / RFU, TMA16 / Fold change vs veh, TMA16 / RFU, RWDD3 / Fold change vs veh, RWDD3 / RFU, BCAT1 / Fold change vs veh, BCAT1 / RFU, EDEM3 / Fold change vs veh, EDEM3 / RFU, TMEM33 / Fold change vs veh, TMEM33 / RFU, WDR75 / Fold change vs veh, WDR75 / RFU, AHCTF1 / Fold change vs veh, AHCTF1 / RFU, TFRC / Fold change vs veh, TFRC / RFU, ZDHHC17 / Fold change vs veh, ZDHHC17 / RFU, NOM1 / Fold change vs veh, NOM1 / RFU, ARL8B / Fold change vs veh, ARL8B / RFU, ZBTB11 / Fold change vs veh, ZBTB11 / RFU, TAMM41 / Fold change vs veh, TAMM41 / RFU, KIAA1704 /// LOC100996395 / Fold change vs veh, KIAA1704 /// LOC100996395 / RFU, ING1 / Fold change vs veh, ING1 / RFU, TRMT61B / Fold change vs veh, TRMT61B / RFU, FUBP3 / Fold change vs veh, FUBP3 / RFU, TP53 / Fold change vs veh, TP53 / RFU, TNKS2 / Fold change vs veh, TNKS2 / RFU, ZFP14 / Fold change vs veh, ZFP14 / RFU, ACTR2 / Fold change vs veh, ACTR2 / RFU, PPP3R1 / Fold change vs veh, PPP3R1 / RFU, PIK3R1 / Fold change vs veh, PIK3R1 / RFU, HNRNPA1 / Fold change vs veh, HNRNPA1 / RFU, RNF170 / Fold change vs veh, RNF170 / RFU, ZNF28 / Fold change vs veh, ZNF28 / RFU, RNGTT / Fold change vs veh, RNGTT / RFU, OGT / Fold change vs veh, OGT / RFU, BRD1 / Fold change vs veh, BRD1 / RFU, MARS / Fold change vs veh, MARS / RFU, ZNF655 / Fold change vs veh, ZNF655 / RFU, FAHD1 / Fold change vs veh, FAHD1 / RFU, BDP1 / Fold change vs veh, BDP1 / RFU, LRRCC1 / Fold change vs veh, LRRCC1 / RFU, ARID1A / Fold change vs veh, ARID1A / RFU, ZNF146 / Fold change vs veh, ZNF146 / RFU, ZNF330 / Fold change vs veh, ZNF330 / RFU, GPN3 / Fold change vs veh, GPN3 / RFU, C9orf123 / Fold change vs veh, C9orf123 / RFU, N4BP2L2 / Fold change vs veh, N4BP2L2 / RFU, ARFIP1 / Fold change vs veh, ARFIP1 / RFU, FAM179B / Fold change vs veh, FAM179B / RFU, BCL10 / Fold change vs veh, BCL10 / RFU, UHRF1BP1L / Fold change vs veh, UHRF1BP1L / RFU, BET1 / Fold change vs veh, BET1 / RFU, CNOT2 / Fold change vs veh, CNOT2 / RFU, ZNF268 / Fold change vs veh, ZNF268 / Fold change vs veh, ZNF507 / RFU, DGCR2 / Fold change vs veh, DGCR2 / RFU, WDSUB1 / Fold change vs veh, WDSUB1 / Fold change vs veh, HSP90B1 /// MIR3652 / RFU, ADSS / Fold change vs veh, ADSS / RFU, GK / Fold change vs veh, GK / RFU, ZNF148 / Fold change vs veh, ZNF148 / RFU, TAF9 / Fold change vs veh, TAF9 / RFU, SLC1A5 / Fold change vs veh, SLC1A5 / RFU, SLMO2 / Fold change vs veh, SLMO2 / RFU, ABCC4 / Fold change vs veh, ABCC4 / RFU, LOC101060439 /// RAP1B / Fold change vs veh, LOC101060439 /// RAP1B / RFU, RFX7 / Fold change vs veh, RFX7 / RFU, GTPBP10 / Fold change vs veh, GTPBP10 / RFU, CNEP1R1 / Fold change vs veh, CNEP1R1 / RFU, BIVM-ERCC5 /// ERCC5 / Fold change vs veh, BIVM-ERCC5 /// ERCC5 / RFU, ILF3 / Fold change vs veh, ILF3 / RFU 11762660_at / Fold change /veh 11762660_at / RFU VCAN (11757783_s_at) / Fold change /veh VCAN (11757783_s_at) / RFU DDX43 (11728927_at) / Fold change /veh DDX43 (11728927_at) / RFU KRT8 (11758188_x_at) / Fold change /veh KRT8 (11758188_x_at) / RFU NKD1 (11759106_at) / Fold change /veh NKD1 (11759106_at) / RFU SRD5A1 (11742802_a_at) / Fold change /veh SRD5A1 (11742802_a_at) / RFU TPSAB1 /// TPSB2 (11721975_s_at) / Fold change /veh TPSAB1 /// TPSB2 (11721975_s_at) / RFU GSTM3 (11746129_a_at) / Fold change /veh GSTM3 (11746129_a_at) / RFU IL23R (11737362_x_at) / Fold change /veh IL23R (11737362_x_at) / RFU TMEM51 (11727254_a_at) / Fold change /veh TMEM51 (11727254_a_at) / RFU PIWIL2 (11732686_x_at) / Fold change /veh PIWIL2 (11732686_x_at) / RFU ORM1 (11744905_x_at) / Fold change /veh ORM1 (11744905_x_at) / RFU CCDC152 (11743942_at) / Fold change /veh CCDC152 (11743942_at) / RFU ECM1 (11717891_a_at) / Fold change /veh ECM1 (11717891_a_at) / RFU IL23R (11748794_a_at) / Fold change /veh IL23R (11748794_a_at) / RFU TNFAIP8L3 (11732012_x_at) / Fold change /veh TNFAIP8L3 (11732012_x_at) / RFU MBOAT4 (11741988_at) / Fold change /veh MBOAT4 (11741988_at) / RFU 11764193_at / Fold change /veh 11764193_at / RFU TMEM53 (11763286_at) / Fold change /veh TMEM53 (11763286_at) / RFU MAGEB2 (11727129_at) / Fold change /veh MAGEB2 (11727129_at) / RFU TMEM200A (11744735_a_at) / Fold change /veh TMEM200A (11744735_a_at) / RFU CCDC152 (11751479_a_at) / Fold change /veh CCDC152 (11751479_a_at) / RFU FAM211A (11726209_a_at) / Fold change /veh FAM211A (11726209_a_at) / RFU RGS16 (11746705_a_at) / Fold change /veh RGS16 (11746705_a_at) / RFU VCAN (11755009_s_at) / Fold change /veh VCAN (11755009_s_at) / RFU RHOB (11743442_s_at) / Fold change /veh RHOB (11743442_s_at) / RFU RGS16 (11720943_a_at) / Fold change /veh RGS16 (11720943_a_at) / RFU RGS16 (11720944_at) / Fold change /veh RGS16 (11720944_at) / RFU, VPS4B / Fold change vs veh, VPS4B / RFU, CREB1 / Fold change vs veh, CREB1 / RFU, DNAJC13 / Fold change vs veh, DNAJC13 / RFU, GNAQ / Fold change vs veh, GNAQ / RFU, CDK5R1 / Fold change vs veh, CDK5R1 / RFU, ZRANB3 / Fold change vs veh, ZRANB3 / RFU, CUL4A / Fold change vs veh, CUL4A / RFU, CCNY / Fold change vs veh, CCNY / RFU, UFL1 / Fold change vs veh, UFL1 / RFU, COG3 / Fold change vs veh, COG3 / RFU, DIAPH2 / Fold change vs veh, DIAPH2 / RFU, SKA2 / Fold change vs veh, SKA2 / RFU, AFF3 / Fold change vs veh, AFF3 / RFU, LMF1 / Fold change vs veh, LMF1 / RFU, IPO11 / Fold change vs veh, IPO11 / RFU, DFFB / Fold change vs veh, DFFB / RFU, FOXP1 / Fold change vs veh, FOXP1 / RFU, CARD8 / Fold change vs veh, CARD8 / RFU, STRN3 / Fold change vs veh, STRN3 / RFU, ADK / Fold change vs veh, ADK / RFU, RASSF2 / Fold change vs veh, RASSF2 / RFU, WIPF1 / Fold change vs veh, WIPF1 / RFU, LARP1B / Fold change vs veh, LARP1B / RFU, RASA1 / Fold change vs veh, RASA1 / RFU, RB1 / Fold change vs veh, RB1 / RFU, PPFIA1 / Fold change vs veh, PPFIA1 / RFU, MAT2A / Fold change vs veh, MAT2A / RFU, CCT5 / Fold change vs veh, CCT5 / RFU, WDR92 / Fold change vs veh, WDR92 / RFU, CUX1 / Fold change vs veh, CUX1 / RFU, TTC7A / Fold change vs veh, TTC7A / RFU, TMEM135 / Fold change vs veh, TMEM135 / RFU, DEPTOR / Fold change vs veh, DEPTOR / RFU, CPM / Fold change vs veh, CPM / RFU, DNAJB6 / Fold change vs veh, DNAJB6 / RFU, CACNA2D3 / Fold change vs veh, CACNA2D3 / RFU, DTX4 / Fold change vs veh, DTX4 / RFU, TFCP2 / Fold change vs veh, TFCP2 / RFU, GMCL1 /// GMCL1P1 / Fold change vs veh, GMCL1 /// GMCL1P1 / RFU, AEBP2 / Fold change vs veh, AEBP2 / RFU, SNHG1 /// SNORD22 /// SNORD25 /// SNORD26 /// SNORD27 /// SNORD28 /// SNORD29 /// SNORD31 / Fold change vs veh, SNHG1 /// SNORD22 /// SNORD25 /// SNORD26 /// SNORD27 /// SNORD28 /// SNORD29 /// SNORD31 / Fold change (Aza/veh), C12orf56 (ProbeSet 11735607_a_at) / Fold change (ACY-1035/veh), C12orf56 (ProbeSet 11735607_a_at) / Fold change (Aza/veh), FGFR1OP (ProbeSet 11751329_s_at) / Fold change (ACY-1035/veh), FGFR1OP (ProbeSet 11751329_s_at) / Fold change (Aza/veh), VPS36 (ProbeSet 11739960_a_at) / Fold change (ACY-1035/veh), VPS36 (ProbeSet 11739960_a_at) / RFU SYPL1 (11715823_x_at) / Fold change /veh SYPL1 (11715823_x_at) / RFU IGFBP7 (11715501_s_at) / Fold change /veh IGFBP7 (11715501_s_at) / RFU REEP3 (11722064_at) / Fold change /veh REEP3 (11722064_at) / RFU IGLL1 (11728026_x_at) / Fold change /veh IGLL1 (11728026_x_at): dose or concentration left out as unconfirmed
Details: MV-4-11 cells, 48 hours

In the case of `Nc1ccc(-c2cccs2)cc1NC(=O)c1ccc2c(c1)cc(C1CC1)n2CCN1CCOCC1` [ACY-1035], the “Fold change /veh TNFAIP8L3 (11732012_x_at)” value is reported as 1.18.
